Experiments:
[1] = target: T1, FcMBL (Homo sapiens, UniProt P11226); assay: Binding affinity (Kd) of medium affinity ligands for FcMBL; details: read-out: Kd (medium affinity ligand of FcMBL)
Source text: (§1) Without wishing to be bound by theory, this reduced background can be related to the prevention of FcMBL low affinity binding to erythrocytes (or other endogenous components in blood) by the medium affinity sugar that in turn can be displaced by the higher affinity targets such as mannan, lipopolysaccharides (LPS), and/or a microbe or fragment thereof.

[2] = target: T1, FcMBL; assay: FcMBL ELISA capture in blood: background and haemocyte binding (FIGS. 3A-3B); details: for background of the FcMBL ELISA: ligand added to FcMBL prior to the capture of mannan in the presence of blood
Description: FIGS. 3A-3B are data graphs showing effects of adding a blocking agent (e.g., ˜10 mM glucose) on binding of a target entity (e.g., LPS) or an interfering agent (e.g., haemocytes) to a target-binding agent (e.g., FcMBL beads) in donor blood.
as §1

T1 sequence (P11226 with tags, fused parts or gaps limits assumed): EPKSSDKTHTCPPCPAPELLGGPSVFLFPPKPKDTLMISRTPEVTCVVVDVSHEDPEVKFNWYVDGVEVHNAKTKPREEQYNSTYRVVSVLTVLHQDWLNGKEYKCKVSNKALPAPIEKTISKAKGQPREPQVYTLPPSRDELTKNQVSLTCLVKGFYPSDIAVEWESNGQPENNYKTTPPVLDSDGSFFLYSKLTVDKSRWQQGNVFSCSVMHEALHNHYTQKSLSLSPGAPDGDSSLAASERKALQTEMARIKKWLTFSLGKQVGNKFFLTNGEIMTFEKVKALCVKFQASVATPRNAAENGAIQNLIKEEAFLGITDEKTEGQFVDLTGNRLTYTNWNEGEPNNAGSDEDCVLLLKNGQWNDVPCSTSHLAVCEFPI

Kd [1] [mM] | background of the FcMBL ELISA [2] | background by binding of erythrocytes or other endogenous blood components to FcMBL ([2]; addition of a small amount of mannan) | Molecule
15 | decreases the background | – | OC[C@H]1O[C@H](O[C@H]2[C@H](O)[C@@H](O)C(O)O[C@@H]2CO)[C@H](O)[C@@H](O)[C@@H]1O (mixture of isomers) [maltose]
17 | decreases the background | – | CC(=O)N[C@H]1C(O)O[C@H](CO)[C@@H](O)[C@@H]1O[C@H](C)C(=O)O (some centres unmarked) [N-acetyl Muramic acid]
– | – | decrease the background | mannan

Reference: patent US10551379B2, “Methods and compositions for improving detection and/or capture of a target entity” (PRESIDENT AND FELLOWS OF HARVARD COLLEGE, priority 2013, dated 2020)
